{
  "source": "paper PMC11788822",
  "about": "“Uncovering the potent antimicrobial activity of squaramide based anionophores – chloride transport and membrane disruption” (Chemical Science, 2025)",
  "key": {"[1]": {"tested_on": "S. aureus", "assay": "Modified MTT assay of cellular respiration", "format": "cell-based, Staphylococcus aureus", "conditions": "HBSS, Cl− free HBSS or Na+ free HBSS buffer, 5 h treatment", "source_text": "To further probe the relationship between anion homeostasis and antimicrobial effect, a modified MTT assay was used next to monitor disruption of cellular respiration in the presence of 1, 2, or 4 either with abundant Cl^− and Na^+, in the absence of Cl^−, or in the absence of Na^+ (Fig. 3). […] Chew and co-workers have reported on the behaviours, and dynamics of adamantylamines in the lipid bilayers, and discussed that adamantylamines show a preferential accumulation in the interfacial layer of lipid bilayers[46] and thus we suspected that these compounds, with an identical pharmacophore may behave in a similar manner accumulating in lipid bilayers of bacterial membranes.[47,48] […]\n(§1) or measured over the course of 2 hrs, starting at T0 (upon addition of compound).\n(§2) Alternatively, 200 µL aliquots of cell suspension were added to a 96-well plate, to the desired quantity, and were either untreated (control), or treated with the compound of interest for 5 mins, whereafter fluorescence was read using a BMG Labtech Clariostar Plus platereader, and plotted relative to control.\nFrom an overnight culture of S. aureus brought to stationary phase (OD600 = ~1.0), was taken samples which were diluted to an OD600 = ~0.2 in either Hank’s buffered salt solution, Cl- free HBSS buffer, or Na+ free buffer. Samples were treated with the respective compound for 5 h at 37 0C. Subsequently, Cell densities for each of the samples were standardised to an OD600 = 0.15, in the relevant buffer system. To each sample was added Triphenyl Tetrazolium Chloride (TTC), to a final concentration of 0.5 mg/mL. 100 µL of each sample was placed into the wells of a 96-well place in 8 replicates. Samples were incubated at 37 0C for 18 h, and subsequently supernatant was removed from each well, taking care as to not disturb the Formazan precipitate. To each well was then added 100 µL DMSO, with repeated pipetting to solubilise precipitate. Samples were read using a microplate reader at 550 nm & plotted as percentage cell viability relative to control. […]"}, "[2]": {"tested_on": "methicillin-resistant S. aureus (MRSA)", "assay": "Growth inhibition assay, MRSA", "format": "cell-based, Staphylococcus aureus", "conditions": "24 h", "protocol": "To determine IC50/80 values, growth (optical density) of S. aureus, methicillin-resistant S. aureus (MRSA), P. aeruginosa, and K. pneumoniae when treated with a range of concentrations of each active compound in vitro was measured at 600 nm after a 24 h incubation period at 37 °C. Each compound was studied for activity below […], and those showing little activity above 200 μM, were noted as such, and omitted from further study.\nStaphylococcus aureus culture conditions […]\nMethicillin-resistant Staphylococcus aureus culture conditions\nMethicillin-resistant S. aureus (clinical isolate – St. James’ University Hospital, Dublin) was cultured at 37 °C in Nutrient broth (Oxoid), containing 25 µg/mL Ampicillin in an orbital shaker at 200 rpm. Stocks were kept on nutrient agar containing 25 µg/mL Ampicillin, stored at 4 °C for up to 2 months, or as glycerol stocks (50/50 glycerol:culture), stored at -70 °C indefinitely. […]\nBacterial cultures were brought to early stationary phase overnight, in nutrient broth (containing 25/50 µg/mL Ampicillin for MRSA/K. pneumoniae, respectively) at 37 °C. Cultures were diluted to an OD600 = 0.01. Aliquots of Culture (100 µl) were added to 100 µL serially diluted compound (200 – 0.78 µM) in nutrient broth in a 96-well plate (Sarstedt, Germany).\nPlates were incubated at 37 °C for 24 h and growth was measured at 600 nm, where growth was measured and represented relative to control. […]"}, "[3]": {"assay": "1H NMR titration with TBACl, Cl− binding", "conditions": "association constant towards Cl−, compound 2.5 mM, 95% DMSO-d6, 1:1 binding model (Bindfit), errors below 10%", "protocol": "To verify if 1–6 formed host–guest complexes with Cl^− in solution, ^1H NMR titrations of each compound (2.5 mM) with TBACl were carried out in DMSO-d6. Increasing equivalents of Cl^− were incrementally added, with spectral information obtained upon addition of each molar equivalent of Cl^−. […] Taking 1 as an example (Fig. 2), upon addition of sequential aliquots of Cl^− there is a clear downfield shift of both squaramide NHs, with minor contributions to the binding cleft derived from the ortho-aryl protons of the aniline of 1. The binding data from each titration was fitted to a 1 : 1 binding model using the Bindfit[36] open access software, and the results are tabulated below (Table 1), alongside the respective Hammett constant for the relevant substitution pattern.[37] […] This aligns with previously reported receptors,[38] where compounds containing CF3 substituents in particular are known to have increased anion binding affinity as well as transport ability.[39]"}, "[4]": {"tested_on": "S. aureus cells", "assay": "MQAE chloride influx assay", "format": "cell-based, Staphylococcus aureus", "conditions": "5 min, MQAE fluorescence fitted to Stern–Volmer equation", "protocol": "To study this, we utilised N-(ethoxycarbonylmethyl)-6-methoxyquinolinium bromide (MQAE) as a fluorescent reporter for cellular Cl^− levels. MQAE fluorescence is highly sensitive to Cl^− flux, where increased cytosolic Cl^− concentration gives rise to a collisional quenching effect. […] To do this, cells were pre-treated with MQAE and then exposed to varying concentrations of 1, 2 and 4, whereafter MQAE fluorescence was read at T = 5 min, and plotted relative to control (Fig. 3).\nFurthermore, using the fluorescence data acquired from these assays, and fitting to the Stern–Volmer equation, we could approximate the increased concentration of Cl^− with respect to basal fluorescence for each of the concentrations studied (Table 3). […]\nMQAE chloride influx assay\nFrom an overnight culture brought to stationary phase (OD600 = ~1.0) was taken samples, brought to an OD600 = 0.2, which were treated with N-Ethoxycarbonylmethyl-6-methoxyquinolium Bromide (MQAE) (10 mM) for 1 h at 37 0C. Subsequently, cells were washed with & resuspended in PBS. 2 mL of samples were taken & transferred to a fluorescence cuvette, whereupon fluorescence was read (λexc = 350 nm (slit width = 5 nm) λem = 460 nm (slit width = 5 nm)) using a Cary Eclipse Fluorescence Spectrophotometer (Agilent Technologies). Subsequently samples were treated with the Compound of interest for 5 mins whereafter fluorescence was measured as previous, with intensity plotted relative to control, […]\nas §1\nas §2, with “control. […]” for “control.”\nSubsequently, cells were resuspended in 1 mL PBS, and treated with a the respective fluorophore or compound of interest at the specified concentration or […]"}, "[5]": {"conditions": "Staphylococcus aureus, MRSA, read-out: MRSA IC50, growth (OD 600 nm) relative to control, 24 h, 37 °C"}, "[6]": {"conditions": "Staphylococcus aureus, MRSA, read-out: MRSA IC80, growth (OD 600 nm) relative to control, 24 h, 37 °C"}},
  "note": "Where two headings read alike, the source gives them in different places.",
  "data": [
    {"smiles": "O=c1c(Nc2cc(C(F)(F)F)cc(C(F)(F)F)c2)c(NC23CC4CC(CC(C4)C2)C3)c1=O", "note": "[Compound 1]", "values": [
      {"measurement": "effect on cellular respiration (MTT)", "setting": "[1]", "value": "concentration dependent decrease in cellular respiration"},
      {"measurement": "IC50", "setting": "[2]; [5]", "value": 1.56, "unit": "µM"},
      {"measurement": "IC80", "setting": "[2]; [6]", "value": 200, "unit": "µM"},
      {"measurement": "IC50", "setting": "[2]; read-out: MRSA IC50, growth (OD 600 nm) relative to control, 37 °C", "value": 1.6, "unit": "µM"},
      {"measurement": "K a", "setting": "[3]", "value": 235, "unit": "M⁻¹"},
      {"measurement": "Increase in chloride concentration from basal level [Clθ] (mM)", "setting": "[4]; 10 μM compound", "value": "+0.31 (±0.02) mM"},
      {"measurement": "Increase in chloride concentration from basal level [Clθ] (mM)", "setting": "[4]; 50 μM compound", "value": "+1.44 (±0.16) mM"},
      {"measurement": "Increase in chloride concentration from basal level [Clθ] (mM)", "setting": "[4]; 100 μM compound", "value": "+4.22 (±2.01) mM"},
      {"measurement": "Increase in chloride concentration from basal level [Clθ] (mM)", "setting": "[4]; 200 μM compound", "value": "+13.31 (±3.05) mM"}
    ]},
    {"smiles": "O=c1c(Nc2ccc(Cl)c(Cl)c2)c(NC23CC4CC(CC(C4)C2)C3)c1=O", "note": "[Compound 2]", "values": [
      {"measurement": "effect on cellular respiration (MTT)", "setting": "[1]", "value": "concentration dependent decrease in cellular respiration"},
      {"measurement": "IC50", "setting": "[2]; [5]", "value": 25, "unit": "µM"},
      {"measurement": "IC80", "setting": "[2]; [6]", "value": "> 200", "unit": "µM"},
      {"measurement": "MRSA IC80", "setting": "[2]; growth (OD 600 nm) relative to control, 37 °C", "value": "exceeded the testing range"},
      {"measurement": "K a", "setting": "[3]", "value": 263, "unit": "M⁻¹"},
      {"measurement": "Increase in chloride concentration from basal level [Clθ] (mM)", "setting": "[4]; 10 μM compound", "value": "+0.21 (±0.02) mM"},
      {"measurement": "Increase in chloride concentration from basal level [Clθ] (mM)", "setting": "[4]; 50 μM compound", "value": "+1.53 (±0.07) mM"},
      {"measurement": "Increase in chloride concentration from basal level [Clθ] (mM)", "setting": "[4]; 100 μM compound", "value": "+2.91 (±0.02) mM"},
      {"measurement": "Increase in chloride concentration from basal level [Clθ] (mM)", "setting": "[4]; 200 μM compound", "value": "+5.49 (±0.01) mM"}
    ]},
    {"smiles": "O=c1c(Nc2ccc([N+](=O)[O-])cc2)c(NC23CC4CC(CC(C4)C2)C3)c1=O", "note": "[Compound 4]", "values": [
      {"measurement": "effect on cellular respiration (MTT)", "setting": "[1]", "value": "concentration dependent decrease in cellular respiration"},
      {"measurement": "IC50", "setting": "[2]; [5]", "value": 50, "unit": "µM"},
      {"measurement": "IC80", "setting": "[2]; [6]", "value": "> 200", "unit": "µM"},
      {"measurement": "IC80", "setting": "[2]; read-out: MRSA IC80, growth (OD 600 nm) relative to control, 37 °C", "value": "> 200", "unit": "µM"},
      {"measurement": "K a", "setting": "[3]", "value": 202, "unit": "M⁻¹"},
      {"measurement": "Increase in chloride concentration from basal level [Clθ] (mM)", "setting": "[4]; 10 μM compound", "value": "+0.61 (±0.07) mM"},
      {"measurement": "Increase in chloride concentration from basal level [Clθ] (mM)", "setting": "[4]; 50 μM compound", "value": "+1.74 (±0.02) mM"},
      {"measurement": "Increase in chloride concentration from basal level [Clθ] (mM)", "setting": "[4]; 100 μM compound", "value": "+3.57 (±0.18) mM"},
      {"measurement": "Increase in chloride concentration from basal level [Clθ] (mM)", "setting": "[4]; 200 μM compound", "value": "+10.19 (±0.08) mM"}
    ]}
  ]
}
